Results published in article PMC4237514, “Novel amino-β-lactam derivatives as potent cholesterol absorption inhibitors” (European Journal of Medicinal Chemistry, 2014).

Molecular target: T1, human NPC1L1 (Homo sapiens, UniProt Q9UHC9)
T1 construct: expressed in transfected cells
T1 sequence (Q9UHC9 22-1359): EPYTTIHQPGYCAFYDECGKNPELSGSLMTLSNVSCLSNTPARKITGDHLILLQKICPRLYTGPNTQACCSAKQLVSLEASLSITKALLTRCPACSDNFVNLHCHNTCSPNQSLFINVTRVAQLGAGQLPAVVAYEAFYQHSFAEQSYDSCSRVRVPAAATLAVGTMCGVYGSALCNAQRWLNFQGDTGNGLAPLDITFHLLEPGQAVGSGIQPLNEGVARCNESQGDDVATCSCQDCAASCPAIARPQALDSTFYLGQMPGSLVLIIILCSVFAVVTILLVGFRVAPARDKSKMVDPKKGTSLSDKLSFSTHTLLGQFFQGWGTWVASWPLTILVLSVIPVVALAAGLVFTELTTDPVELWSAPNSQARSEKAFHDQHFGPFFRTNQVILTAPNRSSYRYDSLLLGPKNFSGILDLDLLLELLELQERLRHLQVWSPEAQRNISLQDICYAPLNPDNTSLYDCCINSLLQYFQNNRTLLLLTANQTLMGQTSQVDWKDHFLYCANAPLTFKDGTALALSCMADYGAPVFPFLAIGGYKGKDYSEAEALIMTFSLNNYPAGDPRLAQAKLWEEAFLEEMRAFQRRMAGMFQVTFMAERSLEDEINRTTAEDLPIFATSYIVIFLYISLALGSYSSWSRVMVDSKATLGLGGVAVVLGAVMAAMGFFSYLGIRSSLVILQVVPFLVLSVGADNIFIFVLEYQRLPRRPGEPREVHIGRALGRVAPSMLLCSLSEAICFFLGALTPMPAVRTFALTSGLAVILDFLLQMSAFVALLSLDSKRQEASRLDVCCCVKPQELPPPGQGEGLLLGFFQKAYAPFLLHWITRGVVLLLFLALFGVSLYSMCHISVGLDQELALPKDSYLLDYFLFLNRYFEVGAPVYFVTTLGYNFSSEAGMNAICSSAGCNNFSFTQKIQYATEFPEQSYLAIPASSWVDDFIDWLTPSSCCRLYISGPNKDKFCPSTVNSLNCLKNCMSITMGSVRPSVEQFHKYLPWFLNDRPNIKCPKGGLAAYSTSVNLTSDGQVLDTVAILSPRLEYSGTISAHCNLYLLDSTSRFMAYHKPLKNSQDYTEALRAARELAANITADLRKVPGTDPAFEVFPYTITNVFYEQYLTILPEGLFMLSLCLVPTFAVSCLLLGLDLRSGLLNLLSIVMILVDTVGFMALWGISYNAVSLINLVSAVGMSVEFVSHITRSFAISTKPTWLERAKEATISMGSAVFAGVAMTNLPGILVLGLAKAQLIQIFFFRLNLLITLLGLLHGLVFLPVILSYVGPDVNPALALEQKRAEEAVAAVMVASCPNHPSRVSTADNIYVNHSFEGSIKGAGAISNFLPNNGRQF
Assay: In vitro [3H]cholesterol uptake assay in hNPC1L1/MDCKII cells
Format: cell-based
Conditions: 1 h, read-out: IC50, cholesterol uptake inhibition
Method: Medium A contained DMEM plus 100 units/mL penicillin and 100 μg/mL streptomycin supplemented with 5% lipoprotein-deficient serum (density > 1.21 g/mL, prepared from FCS by ultracentrifugation). Cholesterol Replenishing Medium (Medium B) was prepared according to the modified method reported by Field et al.. In brief, 0.25 mM oleic acid, 50 μM free cholesterol, 10 μM compactin, 50 μM mevalonate, 5 mM Na-taurocholate (Sigma–Aldrich, Germany), and [^3H]cholesterol (0.18 μCi/mL medium, [1,2–3H(N)] cholesterol, 1 mCi/mL (ARC Inc., USA)) in Medium A were mixed and sonicated. Following the micellar formation, compounds 1, 5, 6, 5/6 (70:30), and 6/5 (85:15) (73 mM stock solution in DMSO) were added to Medium B and vortexed to obtain the final concentrations (10, 30, 60, 90, 120, 150, 200 μM).
MDCKII wildtype and hNPC1L1/MDCKII cells were seeded in 24-well plates at a density of 5 × 10^5 cells/mL medium (500 μL medium/well) in Medium A 24 h before the treatment. Cells were washed once with PBS and incubated in Medium B (500 μL medium/well) containing micelles and tested compounds in indicated concentrations for 1 h. Following the incubation, the medium was removed and cells were washed three times with ice-cold 0.2% free fatty acid-free BSA. Cells were lysed and radioactivity in the lysate (100 μL) was determined by liquid scintillation counting. Protein concentrations of the lysates were determined with the DC Protein Assay (Bio-Rad, USA). The results were calculated as cpm/mg protein and expressed as percentage of inhibition compared to untreated cells. Each concentration was tested in duplicate in three independent experiments.

`O=C1[C@H](NCC(O)c2ccc(F)cc2)[C@@H](c2ccc(O)cc2)N1c1ccc(F)cc1` (stereo partly drawn) [6/5 (85:15), (3R,4R)-3-[(2S/R)-2-(4-fluorophenyl)-2-hydroxyethylamino]-1-(4-fluorophenyl)-4-(4-hydroxyphenyl)azetidin-2-one] gave an IC50 of 71 µM.
